Experimental data from patent US20160243176A1, “EXTRACTS FROM PLANTS OF THE MORINGACEAE FAMILY AND METHODS OF MAKING” (RUTGERS, THE STATE UNIVERSITY OF NEW JERSEY, priority 2013, published 2016).

Assays:
[1] = rotoevaporation 1 hour at 50° C., compared to freeze-dried samples
Excerpt: Drying the 1:5 ratio preparations can be achieved by rotoevaporation, followed by freeze-drying or spray drying. […] Further concentration of MICs and removal of sugars from the extract can also be performed with solid phase-extraction (SPE).

[2] = test system: TNF-α; assay: LPS-induced TNF-α gene expression in RAW 264.7 macrophages; format: cell-based; conditions: any of the concentrations tested; RAW 264.7, LPS
Protocol: (§1) All reagents were supplied from Sigma-Aldrich Co. (St. Louis, Mo.) unless otherwise noted. RAW 264.7 macrophages (ATCC TIB-71) were maintained in Dulbecco's modified Eagle's medium (Caisson, North Logan, Utah) supplemented with 100 U/mL penicillin, 100 μg/mL streptomycin, and 10% fetal bovine serum. Cells were incubated at 37° C. in a 5% CO2 humidified atmosphere and subcultured by cell scraping. For experiments, RAW cells were plated at a density of 4×10^5 cells/mL in 24-well plates. Cells were incubated overnight (18 h), washed with warm 37° C. PBS, and medium was replaced fresh DMEM medium. […] Lipopolysaccharide (1 μg/mL) was added after 2 h incubation with treatments to elicit inflammatory responses. Cells were treated in duplicate or triplicate. After an additional 6 h incubation period, media were collected and cells were washed with PBS prior to collection in TRIzol® Reagent (Ambion, Life Technologies). […]
(§2) Total RNA was extracted from cells according to manufacturer's specifications. […] RNA integrity was evaluated by running about 1 μg of RNA on a 1% agarose gel. […]
(§3) Quantitative PCR amplifications were performed on an ABI 7300 Real-Time PCR System (Applied Biosystems) with the following thermal cycler profile: 2 minutes, 50° C.; 10 minutes, 95° C.; 15 seconds, 95° C.; 1 minute, 60° C. for the dissociation stage; 15 seconds, 95° C.; 1 minutes, 60° C.; and 15 seconds, 95° C. […]

[3] = test system: iNOS; assay: LPS-induced iNOS gene expression in RAW 264.7 macrophages; format: cell-based; conditions: 1 and 5 μM; RAW 264.7, LPS
Protocol: as §1, §2, §3

[4] = test system: Nitric oxide (NO); assay: Nitric oxide production analysis (Griess) in RAW 264.7 macrophages; format: cell-based; conditions: 5 μM
Protocol: (§4) All reagents were supplied from Sigma-Aldrich Co. (St. Louis, Mo.) unless otherwise noted. RAW 264.7 macrophages (ATCC TIB-71) were maintained in Dulbecco's modified Eagle's medium (Caisson, North Logan, Utah) supplemented with 100 U/mL penicillin, 100 μg/mL streptomycin, and 10% fetal bovine serum. Cells were incubated at 37° C. in a 5% CO2 humidified atmosphere and subcultured by cell scraping. For experiments, RAW cells were plated at a density of 4×10^5 cells/mL in 24-well plates. Cells were incubated overnight (18 h), washed with warm 37° C. PBS, and medium was replaced fresh DMEM medium. […] Lipopolysaccharide (1 μg/mL) was added after 2 h incubation with treatments to elicit inflammatory responses. Cells were treated in duplicate or triplicate. After an additional 6 h incubation period, media were collected and cells were washed with PBS prior to collection in TRIzol® Reagent (Ambion, Life Technologies). Samples were stored at −80° C. prior to processing.
After treatments, 1 mL of media was collected and assayed in duplicate following the Griess Reagent System provided by Promega (Promega Corporation; Madison, Wis.). The nitrite standard (0.1 M sodium nitrite) reference curve was built performing a serial dilution (0 to 100 μM). Absorbance was read at 540 nm.

[5] = test system: NO formation; conditions: Cheenpracha et al., 2010; read-out: NO inhibition IC50; cited from earlier work
[6] = Compound stability of MICs in moringa extract stored at 37° C.; format: physicochemical; conditions: 37° C. for 30 days, compared to day 0
[7] = test system: TNF-α; assay: TNF-α secretion analysis (ELISA) in RAW 264.7 macrophages; format: cell-based, Mouse; conditions: 5 μM
Protocol: as §4
After treatments, 1 mL of media was collected and immediately centrifuged at 13,500 g at 4° C. for 10 minutes. The supernatant was preserved at −80° C. until further processing with the BD OptEIATM Mouse TNF ELISA kit (BD Bioscience, San Jose, Calif.) following the manufacturer's protocol. […] TNF-α levels were quantified using a reference standard curve provided with the kit. Absorbance was read at 450 nm and corrected at 570 nm.

[8] = test system: IL-1β; assay: LPS-induced IL-1β gene expression in RAW 264.7 macrophages; format: cell-based; conditions: 1 and 5 μM; RAW 264.7, LPS
Protocol: as §1, §2, §3

[9] = test system: H4IIE rat hepatoma cells; assay: In vitro gluconeogenesis: glucose production; format: cell-based; conditions: HII4E liver cells; for activity on glucose production relative to SF: same concentrations; for IC50: range of 5 concentrations
Protocol: H4IIE rat hepatoma cells (CRL-1548, American Type Culture Collection, Manassas, Va.) were assayed for glucose production as previously described (21). Cell viability was measured by the 3-(4,5-Dimethyl-2-thiazolyl)-2,5-diphenyltetrazolium bromide (MTT; TCI, Portland, Oreg.) assay (22). RNA extraction, cDNA synthesis and qPCR for gene expression of PEPCK and G6P were performed as described above.

[10] = test system: IL-6; assay: LPS-induced IL-6 gene expression in RAW 264.7 macrophages; format: cell-based; conditions: 5 μM; RAW 264.7, LPS
Protocol: as §1, §2, §3

[11] = test system: RAW 264.7 macrophages; assay: MTT-based cell viability assay; conditions: concentrations tested in anti-inflammatory assays
Protocol: The effect of the treatments on cell viability was measured using MTT [3-(4,5-dimethyl-2-thiazolyl)-2,5-diphenyltetrazolium bromide] (TCI, Portland, Oreg.) (Mosmann, 1983). MTT (5 mg/mL) was dissolved in PBS (Cayman Chemical, Ann Arbor, Mich.), filtered through a 0.22 μm membrane and added to treated cells during the last 3-4 hours of treatment. Media were carefully aspirated and cells were dissolved in DMSO. The absorbance was read at 570 nm.

[12] = after 6 days at 37° C.; Franklin et al., 2013; cited from earlier work

Row | Structure (SMILES) | loss of MIC under rotoevaporation conditions [1] | TNF-α gene expression [2] | mRNA expression of iNOS [3] | NO formation [4] | IC50 [5] [µM] | degradation of MIC in moringa extract [6] | reduction of TNF-α production [7] [%] | mRNA expression of IL-1β [8] | activity on glucose production relative to SF [9] | IL-6 gene expression [10] | cytotoxicity (MTT cell viability) [11] | IC50 [9] [µM] | degradation of SF [12] [%] | IC50 ([9]; Rattus norvegicus) [µM]
1 | C[C@@H]1O[C@@H](Oc2ccc(CN=C=S)cc2)[C@H](O)[C@H](O)[C@H]1O [MIC-1, 4-[(α-L-rhamnosyloxy)benzyl] isothiocyanate] | No significant loss | no reduction | significant reduction | inhibited NO formation | 14.4 | approximately 80% | 20 | significant reduction | superior activity to SF | decrease IL-6 gene expression significantly | no signs of cytotoxicity |  |  | 
2 | CC(=O)O[C@@H]1[C@@H](O)[C@@H](O)[C@H](Oc2ccc(CN=C=S)cc2)O[C@H]1C [MIC-4, 4-[(4′-O-acetyl-α-L-rhamnosyloxy)benzyl] isothiocyanate] | No significant loss | no reduction | significant reduction | inhibited NO formation | 2.71 | ~20% | 27 | significant reduction | superior activity to SF |  | no signs of cytotoxicity | 7 |  | 
3 | C[S+]([O-])CCCCN=C=S (stereo not drawn) [SF, sulforaphane] |  |  |  |  |  |  |  |  |  |  |  |  | 75 | 
4 | CN(C)C(=N)N=C(N)N [metformin, reference compound] |  |  |  |  |  |  |  |  |  |  |  |  |  | 800
